For the assay, the target named is D112_2N-mutant H3 HA (A/X-31) (Influenza A virus, UniProt P03438, D457N). The format is cell-based, influenza A/H3N2 virus.

The structures appear in SMILES notation.

The results in this text go back to PMC11931604 (Drug Development Research, 2025).

In the case of `CC1CCC2(CC1)SC(C)C(=O)N2NC(=O)c1ccc(C(C)(C)C)cc1` (stereo not shown) [Compound 2c, 4‐(tert‐Butyl)‐N‐(2,8‐dimethyl‐3‐oxo‐1‐thia‐4‐azaspiro[4.5]decan‐4‐yl)benzamide], the “inhibition of membrane fusion in cells expressing D112_2N-substituted HA” value was “no inhibition”.
